In PubChem BioAssay AID2060619 (Molecular Pharmacology Branch, DTP, NCI, 2025):

Tested on: 323965-272-R-J2-PDC complex spheroid viability
Experiment: Anticancer human tumor 323965-272-R-J2-PDC patient-derived pancreatic carcinoma cell line growth inhibition [CLK]
Conditions: for IC50: curve of first compound; for viability, T/C: stronger effect = lower value
In short: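 Patient-derived tumor cells grown as complex spheroids with HUVEC endothelial cells and mesenchymal stem cells, treated with drug combinations. Concentrations descend in half-log steps from near clinical Cmax, or from 10 microM if Cmax unknown.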

[1] = second compound 0.0316 µM, first compound 0.0316 µM
[2] = second compound 0.0316 µM, first compound 0.1 µM
[3] = second compound 0.0316 µM, first compound 0.316 µM
[4] = second compound 0.0316 µM, first compound 1 µM
[5] = second compound 0.1 µM, first compound 0.0316 µM
[6] = second compound 0.1 µM, first compound 0.1 µM
[7] = second compound 0.1 µM, first compound 0.316 µM
[8] = second compound 0.1 µM, first compound 1 µM
[9] = second compound 0.316 µM, first compound 0.0316 µM
[10] = second compound 0.316 µM, first compound 0.1 µM
[11] = second compound 0.316 µM, first compound 0.316 µM
[12] = second compound 0.316 µM, first compound 1 µM
[13] = second compound 1 µM, first compound 0.0316 µM
[14] = second compound 1 µM, first compound 0.1 µM
[15] = second compound 1 µM, first compound 0.316 µM
[16] = second compound 1 µM, first compound 1 µM
[17] = second compound 3.16 µM, first compound 0.0316 µM
[18] = second compound 3.16 µM, first compound 0.1 µM
[19] = second compound 3.16 µM, first compound 0.316 µM
[20] = second compound 3.16 µM, first compound 1 µM
[21] = second compound 10 µM, first compound 0.0316 µM
[22] = second compound 10 µM, first compound 0.1 µM
[23] = second compound 10 µM, first compound 0.316 µM
[24] = second compound 10 µM, first compound 1 µM
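Also: spheroids exposed to agents for seven days before readout.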
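For viability, T/C in this document: percent of DMSO vehicle control wells so 100% = untreated growth.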

CC(=O)O[C@H]1C(=O)[C@@]2(C)[C@H]([C@H](OC(=O)c3ccccc3)[C@]3(O)C[C@H](OC(=O)[C@H](O)[C@@H](NC(=O)c4ccccc4)c4ccccc4)C(C)=C1C3(C)C)[C@]1(OC(C)=O)CO[C@@H]1C[C@@H]2O + CN1CCN(c2cc(C(=O)Nc3cc4cc(-c5cnn(C)c5)ccc4cn3)ccn2)CC1
IC50 (second compound 0.0316 µM): < 31.6 nM
IC50 (second compound 0.1 µM): < 31.6 nM
IC50 (second compound 0.316 µM): < 31.6 nM
IC50 (second compound 1 µM): < 31.6 nM
IC50 (second compound 3.16 µM): < 31.6 nM
IC50 (second compound 10 µM): < 31.6 nM
viability, T/C [1]: 33.2%
viability, T/C [2]: 34.3%
viability, T/C [3]: 31.7%
viability, T/C [4]: 33%
viability, T/C (second compound 0.0316 µM, first compound 3.16 µM): 34.8%
viability, T/C (second compound 0.0316 µM, first compound 10 µM): 30.4%
viability, T/C [5]: 28.3%
viability, T/C [6]: 28.1%
viability, T/C [7]: 24.7%
viability, T/C [8]: 25.9%
viability, T/C (second compound 0.1 µM, first compound 3.16 µM): 26.7%
viability, T/C (second compound 0.1 µM, first compound 10 µM): 28.5%
viability, T/C [9]: 19.8%
viability, T/C [10]: 19.3%
viability, T/C [11]: 19%
viability, T/C [12]: 19.5%
viability, T/C (second compound 0.316 µM, first compound 3.16 µM): 17.2%
viability, T/C (second compound 0.316 µM, first compound 10 µM): 16.9%
viability, T/C [13]: 3.79%
viability, T/C [14]: 3.19%
viability, T/C [15]: 3.35%
viability, T/C [16]: 2.94%
viability, T/C (second compound 1 µM, first compound 3.16 µM): 3.34%
viability, T/C (second compound 1 µM, first compound 10 µM): 3.64%
viability, T/C [17]: 3.67%
viability, T/C [18]: 6.44%
viability, T/C [19]: 4.39%
viability, T/C [20]: 4.7%
viability, T/C (second compound 3.16 µM, first compound 3.16 µM): 3.88%
viability, T/C (second compound 3.16 µM, first compound 10 µM): 5.16%
viability, T/C [21]: 4.53%
viability, T/C [22]: 4.6%
viability, T/C [23]: 4.22%
viability, T/C [24]: 3.5%
viability, T/C (second compound 10 µM, first compound 3.16 µM): 3.95%
viability, T/C (second compound 10 µM, first compound 10 µM): 3.79%

CCc1c2c(nc3ccc(O)cc13)-c1cc3c(c(=O)n1C2)COC(=O)[C@]3(O)CC + CN1CCN(c2cc(C(=O)Nc3cc4cc(-c5cnn(C)c5)ccc4cn3)ccn2)CC1
IC50 (second compound 0.0316 µM): 7.63 nM
IC50 (second compound 0.1 µM): < 3.16 nM
IC50 (second compound 0.316 µM): < 3.16 nM
IC50 (second compound 1 µM): < 3.16 nM
IC50 (second compound 3.16 µM): < 3.16 nM
IC50 (second compound 10 µM): < 3.16 nM
viability, T/C (second compound 0.0316 µM, first compound 0.00316 µM): 77.2%
viability, T/C (second compound 0.0316 µM, first compound 0.01 µM): 41.7%
viability, T/C [1]: 28.6%
viability, T/C [2]: 27.2%
viability, T/C [3]: 25.7%
viability, T/C [4]: 24.1%
viability, T/C (second compound 0.1 µM, first compound 0.00316 µM): 42.6%
viability, T/C (second compound 0.1 µM, first compound 0.01 µM): 33.3%
viability, T/C [5]: 26%
viability, T/C [6]: 24.7%
viability, T/C [7]: 20.1%
viability, T/C [8]: 19.7%
viability, T/C (second compound 0.316 µM, first compound 0.00316 µM): 22.2%
viability, T/C (second compound 0.316 µM, first compound 0.01 µM): 23.1%
viability, T/C [9]: 18.6%
viability, T/C [10]: 20.3%
viability, T/C [11]: 19.1%
viability, T/C [12]: 6.86%
viability, T/C (second compound 1 µM, first compound 0.00316 µM): 3.79%
viability, T/C (second compound 1 µM, first compound 0.01 µM): 3.36%
viability, T/C [13]: 2.56%
viability, T/C [14]: 2.23%
viability, T/C [15]: 1.14%
viability, T/C [16]: 0.61%
viability, T/C (second compound 3.16 µM, first compound 0.00316 µM): 4.21%
viability, T/C (second compound 3.16 µM, first compound 0.01 µM): 3.48%
viability, T/C [17]: 3.05%
viability, T/C [18]: 1.79%
viability, T/C [19]: 1.1%
viability, T/C [20]: 0.61%
viability, T/C (second compound 10 µM, first compound 0.00316 µM): 4.27%
viability, T/C (second compound 10 µM, first compound 0.01 µM): 6.63%
viability, T/C [21]: 2.33%
viability, T/C [22]: 1.69%
viability, T/C [23]: 0.96%
viability, T/C [24]: 0.59%
